From patent US9045415B2, “Targeting of EWS-FLI1 as anti-tumor therapy” (Georgetown University, priority 2006, dated 2015)
Where “and” joins values, the source holds several entries; their conditions need not be identical. Equal values may be shown once. Entries after “also recorded” stand apart in the source; their conditions may differ. Read-outs that look alike come from different tables or passages of the source.

Legend:
recombinant EWS-FLI1 = biological target: T1, recombinant EWS-FLI1 (Homo sapiens, UniProt Q01543+Q01844); assay: Surface plasmon resonance (Biacore) binding to EWS-FLI1
T1 sequence (Q01543 1-452): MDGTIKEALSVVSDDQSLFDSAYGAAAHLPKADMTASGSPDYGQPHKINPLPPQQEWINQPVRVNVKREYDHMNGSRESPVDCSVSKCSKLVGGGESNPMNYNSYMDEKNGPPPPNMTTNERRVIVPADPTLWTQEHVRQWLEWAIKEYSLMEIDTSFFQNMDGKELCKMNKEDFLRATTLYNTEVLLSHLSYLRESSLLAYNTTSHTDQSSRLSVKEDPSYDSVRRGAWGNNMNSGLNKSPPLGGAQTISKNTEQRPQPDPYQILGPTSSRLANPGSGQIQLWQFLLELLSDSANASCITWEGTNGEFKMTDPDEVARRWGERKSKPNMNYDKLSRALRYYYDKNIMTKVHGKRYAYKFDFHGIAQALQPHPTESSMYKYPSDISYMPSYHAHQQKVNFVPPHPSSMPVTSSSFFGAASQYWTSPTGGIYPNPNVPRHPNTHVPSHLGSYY
T1 sequence (Q01844 1-656): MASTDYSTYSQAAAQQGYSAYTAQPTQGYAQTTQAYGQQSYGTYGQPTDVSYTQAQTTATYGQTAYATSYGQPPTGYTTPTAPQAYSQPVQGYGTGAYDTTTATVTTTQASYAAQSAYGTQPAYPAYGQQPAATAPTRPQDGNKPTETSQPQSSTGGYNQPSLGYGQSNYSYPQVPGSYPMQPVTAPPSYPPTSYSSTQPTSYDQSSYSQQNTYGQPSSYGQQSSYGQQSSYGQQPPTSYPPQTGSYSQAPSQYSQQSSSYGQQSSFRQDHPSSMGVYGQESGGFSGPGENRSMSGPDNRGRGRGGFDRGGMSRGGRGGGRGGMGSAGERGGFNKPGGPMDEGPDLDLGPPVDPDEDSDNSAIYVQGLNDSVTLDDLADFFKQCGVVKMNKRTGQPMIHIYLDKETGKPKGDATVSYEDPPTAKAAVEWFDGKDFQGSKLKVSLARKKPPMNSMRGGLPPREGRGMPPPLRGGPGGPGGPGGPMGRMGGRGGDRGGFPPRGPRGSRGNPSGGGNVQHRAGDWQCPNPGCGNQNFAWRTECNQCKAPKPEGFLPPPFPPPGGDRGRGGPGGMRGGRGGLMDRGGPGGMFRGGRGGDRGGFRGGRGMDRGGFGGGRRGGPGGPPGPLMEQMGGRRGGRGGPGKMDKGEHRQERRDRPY
Description: Antp is conjugated to the amino terminal of all peptides used in these studies. Recombinant EWS-FLI1 (MW 55 kDa) was covalently linked to a CM5 chip at a density of 1200 RU, and E9RP (MW 4 kDa) was evaluated for binding. The E9RP analyte concentrations ranged from 0.03-30 μM, and all are shown in duplicate. E9RP bound to EWS-FLI1 with a KD of 4.0 μM.
An assay that will identify whether a peptide can disrupt RHA from interacting with EWS-FLI1 was developed. The Biacore device is a biosensor that utilizes surface plasmon resonance (SPR) to measure the strength of molecular interactions. SPR is the sensitive measurement of […] light based upon alterations of surface characteristics that change with molecules binding to a surface. The Biacore device combines SPR with a microfluidic system.
The KD of E9RP binding to EWS-FLI1 was calculated to be 4.0 μM (FIG. 4).
A surface plasmon resonance assay using the Biacore T100 was established with EWS-FLI1, prepared in our laboratory as previously published (Uren, A., Tcherkasskaya, O. & Toretsky, J. A. Recombinant EWS-FLI1 oncoprotein activates transcription. Biochemistry 43, 13579-13589 (2004)). DNA oligonucleotides were used to quality control the proper conformation of EWS-FLI1 on the surface of a CM5 chip. Small molecules obtained from the Developmental Therapeutics Program of the National Cancer Institute, NIH (http://dtp.nci.nih.gov/branches/dscb/repo_open.html) were prioritized based upon their molecular weight and solubility. An initial screening of molecules was performed at 1 or 10 μM compound, based on solubility. We used a model that compares the actual binding maximum (actual RU) with the theoretical binding maximum (RUtheor). […] Hits (RUactual to RUtheor of 0.7-2.0) were then reviewed by a team of medicinal chemists and those with structural potentials were selected for further study. Selected molecules were tested in vitro in a solution coimmunoprecipitation assay using recombinant EWS-FLI1 and GST-RHA (647-1075).

RHA binding to EWS-FLI1 = assay: Solution immunoprecipitation of GST-RHA with recombinant EWS-FLI1; parameters: species or system human; settings: for binding of GST-RHA (647-1075) to full-length recombinant EWS-FLI1: cell-free assay
Description: E9RP is the peptide region of RHA (E9R; SEQ ID NO: 29) fused to the Penetratin peptide (from the Antennapedia homeodomain; SEQ ID NO: 34). Immunoprecipitation of GST-RHA using recombinant EWS-FLI1 bound to a FLI1 antibody. […] E9RP is the sequence of aa 823-832 of human RHA that were synthesized.
(§1) In FIG. 13A, recombinant EWS-FLI1 was treated with NSC635437 for 30 minutes. GST-RHA (630-1020) was added and the complexes were then precipitated with antibody to EWS-FLI1 and Protein G beads. Resolved complexes showing the immunoprecipitated complex control without compound are in lanes 3 (0.1% DMSO) and 5 (0.01% DMSO). […] ESFT TC32 (◯) and neuroblastoma SK-N-AS (▪) were grown for 72 hours in the continuous presence of NSC635437. Cells were incubated in MTT reagent for 4 hours and the dried precipitate was dissolved isopropanol and the absorbance read at 570 nm. Each cell line was standardized to the growth of the DMSO control.
Protein lysates and immunoprecipitations were performed as previously published (Uren et al (2005)). Recombinant GST-RHA (647-1075) was prepared from crude bacterial extracts without further purification.
Reagents were developed to block RHA binding to EWS-FLI1 since RHA is necessary for optimal EWS-FLI1 activity. The E9R peptide corresponds to amino acids 823 to 832, located in the proximal HA2 region of RHA (FIG. 29A). A cell-free protein interaction assay was developed to test whether E9R peptide inhibits RHA binding to EWS-FLI1. […] It was determined whether disrupted EWS-FLI1/RHA binding inhibited cell growth.

TC32 cells = assay: Monolayer cell growth (MTT or WST), TC32; type: cell-based; settings: for IC50: Homo sapiens, TC-32, 168 h, seven days in culture, read-out: IC50, TC32 cells growing in monolayer
Description: as §1
FIG. 30 provides data to show E9R peptide prevents EWS-FLI1 binding to RHA with specific detrimental effects upon ESFT growth and transformation. […] Scale bar equals 20 μm. […] Only expression of EGFP-E9R in TC71 reduced anchorage independent growth. […] Scale bar equals 20 μm.
FIG. 33 provides data showing YK-4-279 is potent and specific inhibitor of ESFT. […] Cell number was measured by MTT or WST reduction after seven days in culture. […] FIG. 33D cell lines expressing EWS-FLI1 compared to non-EWS-FLI1 malignant cell lines following 3 days in culture to establish the IC50 using WST assay. […] Graph plots level of fluorescence in treated divided by untreated lysate. […] Scale bar equals 200 μm.

[1] = FIG. 24 experiment, read-out: KD
[2] = SPR, EWS-FLI1 immobilized on CM5 chip, read-out: KD of binding to EWS-FLI1

| RUactual:RUtheor (recombinant EWS-FLI1; library screening, single concentration) | RHA binding to EWS-FLI1 in solution binding assay (RHA binding to EWS-FLI1; 10 μM) | complex formation compared to DMSO matched controls (RHA binding to EWS-FLI1; 10 μM and 1 μM, GST-RHA (630-1020)) | SMILES | Kd (recombinant EWS-FLI1; [1]) | Kd (recombinant EWS-FLI1; [2]) | binding of GST-RHA (647-1075) to full-length recombinant EWS-FLI1 (RHA binding to EWS-FLI1) | cell growth (MTT) (TC32 cells; 72 hours continuous presence) | IC50 (TC32 cells) [nM] |
| --- | --- | --- | --- | --- | --- | --- | --- | --- |
| 0.9 | block the binding of RHA to EWS-FLI1 | decreased complex formation | O=C(CC1(O)C(=O)Nc2c(Cl)ccc(Cl)c21)c1ccc(Cl)cc1 (stereo not drawn) [NSC635437, 4,7-Dichloro-3-[2-(4-chlorophenyl)-2-oxoethyl]-3-hydroxyl-1,3-dihydro-2H-indol-2-one] | 1210 nM and 2020 nM | 2340 nM and 2000 nM | reduced the direct binding | specifically cytotoxic to ESFT cells; also recorded: reduces ESFT | 20000 |
| – | – | – | COc1ccc(C(=O)CC2(O)C(=O)Nc3c(Cl)ccc(Cl)c32)cc1 (stereo not drawn) [YK-4-279, 4,7-Dichloro-3-hydroxy-3-[2-(4-methoxyphenyl)-2-oxoethyl]-1,3-dihydro-2H-indol-2-one] | 4560 nM | 9480 nM | significantly reduced the protein-protein interaction | – | 900 |
